Reference: US20250136722A1, “CYTOTOXICITY TARGETING CHIMERAS” (GLAXOSMITHKLINE INTELLECTUAL PROPERTY DEVELOPMENT LIMITED, priority 2021, published 2025)
“And” between values parts separate entries of the source, which are not always exact repeats. Identical values can stand only once.

Legend:
[1] = target: T1, CHOK1 cells engineered to overexpress human CCR2 (Homo sapiens, UniProt P41597); test: Antibody dependent cellular cytotoxicity (ADCC) reporter assay (Example 199); type: cell-based; details: with anti-cotinine antibody SEQ ID NO: 11/12; CHOK1-human CCR2 target cells, Jurkat FcγRIIIa NFAT-luciferase reporter cells; 12-18 hours; read-out: ADCC Reporter Assay pEC50 (converted)
T1 construct: expressed in transfected cells; host or cells: CHOK1 cells
Procedure, shortened: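 Potency is reported as pEC50 from a nonlinear fit, averaged over runs, using luciferase signal divided by that of compound-free wells. The readout comes from NFAT-luciferase Jurkat cells expressing FcγRIIIa, mixed for 12–18 h with human CCR2-overexpressing CHOK1 cells, 1 pM–10 μM ARM compound and 0.01–200 μg/mL Fc-enhanced anti-cotinine IgG1.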

[2] = target: Anti-cotinine antibody (SEQ ID NO: 11 / SEQ ID NO: 12, rabbit variable region with human IgG1 Fc domain); test: Binding of anti-cotinine antibody to ARM compounds by SPR, Biacore T200, 37° C. (Example 202); details: pH 7.4, rabbit variable region/human IgG1 Fc antibody captured on protein A
Protocol: Anti-cotinine antibodies having a heavy chain sequence of SEQ ID NO: 11 and a light chain sequence of SEQ ID NO: 12 (rabbit variable region with human IgG1 Fc domain containing a DE mutation (S239D/1332E)) were captured on one or more flow cells of a protein A sensor chip (Cytiva) using a Biacore T200 while reserving flow cell 1 as a reference. Following capture, a 3000 second wait step was included to reduce drift during compound analysis. ARM compounds of Formula (I) were then injected at 100 μL/min with 200 and 2000 second association and dissociation times. The entire experiment was run at 37° C. with running buffer containing 10 mM HEPES pH 7.4, 150 mM NaCl, 0.005% P20 and 1% DMSO. ARM compounds of Formula (I) were titrated with a top concentration of 200 nM using a 3-fold 5-point dilution series and a corresponding 5-injection buffer cycle was run for blank subtraction. Data were double referenced by subtracting the response of the reference flow cell from that of the antibody-containing flow cell and subsequently subtracting the referenced blank sensorgrams. Following compound analysis, the surface was regenerated using a 30 second injection of pH 1.5 glycine at a flow rate of 30 μL/min after which antibody was re-captured. The experiment was run using Biacore T200 control software and evaluated using Biacore T200 Evaluation software. Curves were fit with a 1:1 kinetic binding model to obtain kon(1/Ms), koff(1/s), Kd (M) determined as koff/kon, and residence time determined as 1/koff. (s).
Anti-cotinine antibody was tested for binding to ARMs compounds of Formula (I) of the invention in the above assay in or more experimental runs and the results are shown in Table 5 below. Affinity is reported as a pKd value. The pKd value is the negative log of the Kd value, wherein the Kd value is the dissociation constant measured in molar (M) as noted above. For compounds tested in more than one experimental run, the pKd value is reported as an average.

[3] = target: human alpha1 nicotinic acetylcholine (nACh) receptor (Homo sapiens, UniProt P02708+Q07001); test: Nicotinic acetylcholine receptor antagonism assay, IONFlux automated patch clamp (Example 203); type: cell-based; details: for Emax at 100 µM: maximum percentage antagonism at maximum concentration tested 100 μM; for Emax at 100 µM / Emax at 10 µM: read-out: Maximum Response (%); for IC50: nAChR antagonism, ACh stimulated, patch clamp; for Emax at 10 µM: maximum percentage antagonism at maximum concentration tested 10 μM
Protocol: Cells expressing human alpha1 nicotinic acetylcholine (nACh) receptor (nAChR) were washed and dissociated using Trypsin containing buffer. Cells were then washed and seeded at a density of 3-5 million cells/mL and allowed to grow for 3 days. Then, 60-80 μL of cells were added to plates and incubated with dose response of an ARM compound of Formula (I) with a top concentration of either 10 μM or 100 μM. The receptor was then stimulated via addition of acetylcholine (ACh) and activation of the receptor was monitored via the IONFlux automated patch clamp system. IonFlux Data Analyzer software was utilized to perform leak subtraction and measure (min) peak current amplitude.
Data processing: (1) Current values recorded for vehicle only applications in individual traps/patterns were subtracted from corresponding current amplitude values for control, test article and control+test article. (2) Control response was calculated as % of the average response of the 3rd out of total 3 ACh (10 mM) applications alone. In rare situations, if the 3rd ACh response was obscured due to technical artifacts, the 2nd and/or 1 st ACh (10 mM) application was considered as control. The peak current amplitude generated in the presence of each test article concentration was then used to calculate the % inhibition as compared to control response (10 mM ACh alone). These estimates were further corrected for vehicle response and run down corrected by normalizing with time matched control responses (10 mM ACh alone). The corrected percentages were then fit with a non-linear function in GraphPad Prism 6 (or later versions) to determine the […].
Exclusion criteria: (i) any n's with poor recording quality, (ii) control current amplitude <500 pA or (iii) significant outliers, as determined by the Grubbs' test.
ARMs compounds of Formula (I) of the invention were tested for antagonism of the nAChR in the above assay in […] experimental runs and the results are shown in Table 7 below. Antagonistic activity of the compounds of Formula (I) of the invention is reported as an IC50 value (half maximal inhibitory concentration) and the maximum percentage antagonism observed at the highest concentration of compound of Formula (I) tested, as indicated in Table 7. For compounds tested in more than one experimental run, the IC50 value is reported as an average.

Chain of human alpha1 nicotinic acetylcholine (nACh) receptor (P02708 21-457): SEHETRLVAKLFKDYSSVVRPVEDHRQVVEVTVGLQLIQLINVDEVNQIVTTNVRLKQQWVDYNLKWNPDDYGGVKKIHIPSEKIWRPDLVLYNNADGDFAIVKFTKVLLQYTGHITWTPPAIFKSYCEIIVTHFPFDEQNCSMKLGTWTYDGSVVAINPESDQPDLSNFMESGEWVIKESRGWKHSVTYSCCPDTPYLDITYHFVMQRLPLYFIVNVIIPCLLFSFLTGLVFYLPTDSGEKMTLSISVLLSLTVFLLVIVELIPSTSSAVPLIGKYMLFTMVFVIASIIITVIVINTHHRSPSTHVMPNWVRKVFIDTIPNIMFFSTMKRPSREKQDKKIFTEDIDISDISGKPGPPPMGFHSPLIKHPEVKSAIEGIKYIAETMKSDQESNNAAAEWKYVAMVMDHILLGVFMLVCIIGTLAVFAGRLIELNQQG
Chain of human alpha1 nicotinic acetylcholine (nACh) receptor (P11230 24-501 partner): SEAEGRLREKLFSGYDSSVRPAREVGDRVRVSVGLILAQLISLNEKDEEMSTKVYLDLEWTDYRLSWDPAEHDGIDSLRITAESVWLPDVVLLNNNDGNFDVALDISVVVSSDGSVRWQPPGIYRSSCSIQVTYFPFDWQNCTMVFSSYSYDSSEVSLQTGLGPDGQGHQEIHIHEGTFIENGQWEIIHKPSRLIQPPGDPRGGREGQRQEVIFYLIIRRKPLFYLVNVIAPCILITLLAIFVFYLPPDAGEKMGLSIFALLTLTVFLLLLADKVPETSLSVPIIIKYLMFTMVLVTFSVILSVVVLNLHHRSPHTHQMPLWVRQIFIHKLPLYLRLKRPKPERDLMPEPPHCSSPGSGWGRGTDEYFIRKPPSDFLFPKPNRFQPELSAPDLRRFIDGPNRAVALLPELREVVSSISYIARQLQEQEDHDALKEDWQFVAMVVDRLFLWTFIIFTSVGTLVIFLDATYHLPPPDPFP
Chain of human alpha1 nicotinic acetylcholine (nACh) receptor (Q07001 22-517): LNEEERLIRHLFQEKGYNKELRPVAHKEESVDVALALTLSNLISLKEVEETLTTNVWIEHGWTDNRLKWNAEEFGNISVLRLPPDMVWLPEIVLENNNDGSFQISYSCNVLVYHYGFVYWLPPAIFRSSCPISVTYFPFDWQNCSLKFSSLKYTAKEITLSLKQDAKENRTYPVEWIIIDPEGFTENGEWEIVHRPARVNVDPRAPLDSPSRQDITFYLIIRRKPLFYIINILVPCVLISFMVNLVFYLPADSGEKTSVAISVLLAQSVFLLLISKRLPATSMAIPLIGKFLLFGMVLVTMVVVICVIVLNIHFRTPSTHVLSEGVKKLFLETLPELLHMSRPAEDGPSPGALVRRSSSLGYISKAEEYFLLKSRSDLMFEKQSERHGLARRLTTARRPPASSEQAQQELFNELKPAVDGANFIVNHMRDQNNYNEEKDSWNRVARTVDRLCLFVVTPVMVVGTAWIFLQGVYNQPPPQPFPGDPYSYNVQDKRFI

For `CN1C(=O)C[C@H](C(=O)NCCO[C@H]2CC[C@@H](OCCCC(=O)N[C@H]3CC[C@H](C(=O)N[C@@H]4C[C@H](NC(C)(C)C)CC[C@@H]4N4CC[C@H](Nc5ncnc6ccc(C(F)(F)F)cc56)C4=O)CC3)CC2)[C@H]1c1cccnc1` [Example 2], the EC50 [1] was 5.06 nM and the “pKd of Antibody for ARM Compound of Formula (I)” value (“pKd of Antibody” for short) [2] was 9.4775.
`CC(C)N(C)[C@@H]1CC[C@H](N2CC[C@H](Nc3ncnc4ccc(C(F)(F)F)cc34)C2=O)[C@H](NC(=O)[C@H]2CC[C@@H](NC(=O)CCCO[C@H]3CC[C@@H](OCCNC(=O)[C@H]4CC(=O)N(C)[C@@H]4c4cccnc4)CC3)CC2)C1` [Example 3] was tested, and the EC50 [1] was 0.155 nM and 0.283 nM and the “pKd of Antibody” value [2] was 9.2795.
Work on `CC(C)N(C)[C@@H]1CC[C@H](N2CC[C@H](Nc3ncnc4ccc(C(F)(F)F)cc34)C2=O)[C@H](NC(=O)[C@H]2C[C@H](NC(=O)CCCO[C@H]3CC[C@H](OCCNC(=O)[C@H]4CC(=O)N(C)[C@@H]4c4cccnc4)CC3)C2)C1` [Example 8] yielded an Emax at 100 µM [3] of 73.1%, an IC50 [3] of 47200 nM and an EC50 [1] of 0.631 nM.
In the case of `CC(C)N(C)[C@@H]1CC[C@H](N2CC[C@H](Nc3ncnc4ccc(C(F)(F)F)cc34)C2=O)[C@H](NC(=O)[C@H]2C[C@@H](NC(=O)CCCO[C@H]3CC[C@H](OCCNC(=O)[C@H]4CC(=O)N(C)[C@@H]4c4cccnc4)CC3)C2)C1` [Example 9], the Emax at 100 µM [3] is reported as 53.9%, the IC50 [3] is reported as 82000 nM and the EC50 [1] is reported as 25.1 nM.
For `CC(C)N(C)[C@@H]1CC[C@H](N2CC[C@H](Nc3ncnc4ccc(C(F)(F)F)cc34)C2=O)[C@H](NC(=O)[C@H]2CC[C@H](NC(=O)CCCO[C@H]3CC[C@H](OCCNC(=O)[C@H]4CC(=O)N(C5CC5)[C@@H]4c4cccnc4)CC3)CC2)C1` [Example 13], the “pKd of Antibody” value [2] was 10.511.
With `CC(C)N(C)[C@@H]1CC[C@H](N2CC[C@H](Nc3ncnc4ccc(C(F)(F)F)cc34)C2=O)[C@H](NC(=O)[C@H]2CC[C@@H](NC(=O)CCOCCCNC(=O)CCCNC(=O)[C@H]3CC(=O)N(C)[C@@H]3c3cccnc3)CC2)C1` [Example 17, (2S,3S)-N-(4-((3-(3-(((1S,4s)-4-(((1R,2S,5R)-5-(Isopropyl(methyl)amino)-2-((S)-2-oxo-3-((6-(trifluoromethyl)quinazolin-4-yl)amino)pyrrolidin-1-yl)cyclohexyl)carbamoyl)cyclohexyl)amino)-3-oxopropoxy)propyl)amino)-4-oxobutyl)-1-methyl-5-oxo-2-(pyridin-3-yl)pyrrolidine-3-carboxamide] the Emax at 100 µM [3] was 55.1%, the IC50 [3] was no less than 100000 nM and the EC50 [1] was 0.338 nM and 0.656 nM.
Compound `CC(C)N(C)[C@@H]1CC[C@H](N2CC[C@H](Nc3ncnc4ccc(C(F)(F)F)cc34)C2=O)[C@H](NC(=O)[C@H]2C[C@H](NC(=O)CCOCCOCCOCCNC(=O)[C@H]3CC(=O)N(C)[C@@H]3c3cccnc3)C2)C1` [Example 27] has an Emax at 100 µM [3] of 53.8%, an IC50 [3] of 93700 nM and an EC50 [1] of 7.28 nM.
`CC(C)N(C)[C@@H]1CC[C@H](N2CC[C@H](Nc3ncnc4ccc(C(F)(F)F)cc34)C2=O)[C@H](NC(=O)[C@H]2C[C@@H](NC(=O)CCOCCNC(=O)CCOCCNC(=O)[C@H]3CC(=O)N(C)[C@@H]3c3cccnc3)C2)C1` [Example 44, (2S,3S)-N-(2-(3-((2-(3-(((1S,3s)-3-(((1R,2S,5R)-5-(Isopropyl(methyl)amino)-2-((S)-2-oxo-3-((6-(trifluoromethyl)quinazolin-4-yl)amino)pyrrolidin-1-yl)cyclohexyl)carbamoyl)cyclobutyl)amino)-3-oxopropoxy)ethyl)amino)-3-oxopropoxy)ethyl)-1-methyl-5-oxo-2-(pyridin-3-yl)pyrrolidine-3-carboxamide] showed an Emax at 100 µM [3] of 51.5%, an IC50 [3] of no less than 100000 nM and an EC50 [1] of 0.897 nM.
`CC(C)N(C)[C@@H]1CC[C@H](N2CC[C@H](Nc3ncnc4ccc(C(F)(F)F)cc34)C2=O)[C@H](NC(=O)[C@H]2CC[C@@H](NC(=O)CCCOC[C@H]3CC[C@@H](COCCNC(=O)[C@H]4CC(=O)N(C)[C@@H]4c4cccnc4)CC3)CC2)C1` [Example 61] was tested, and the “pKd of Antibody” value [2] was 9.558.
`CC(C)N(C)[C@@H]1CC[C@H](N2CC[C@H](Nc3ncnc4ccc(C(F)(F)F)cc34)C2=O)[C@H](NC(=O)c2ccc(C3CCN(CCOCCOCCNC(=O)[C@H]4CC(=O)N(C)[C@@H]4c4cccnc4)CC3)cn2)C1` [Example 94] gave an Emax at 10 µM [3] of 67.1%, an IC50 [3] of 4660 nM and an EC50 [1] of 10 nM.
`CC(C)N(C)[C@@H]1CC[C@H](N2CC[C@H](Nc3ncnc4ccc(C(F)(F)F)cc34)C2=O)[C@H](NC(=O)c2ccc(N3CCC(C(=O)NCCOCCOCCNC(=O)[C@H]4CC(=O)N(C)[C@@H]4c4cccnc4)CC3)cc2)C1` [Example 130, 1-(4-(((1R,2S,5R)-5-(Isopropyl(methyl)amino)-2-((S)-2-oxo-3-((6-(trifluoromethyl)quinazolin-4-yl)amino)pyrrolidin-1-yl)cyclohexyl)carbamoyl)phenyl)-N-(2-(2-(2-((2S,3S)-1-methyl-5-oxo-2-(pyridin-3-yl)pyrrolidine-3-carboxamido)ethoxy)ethoxy)ethyl)piperidine-4-carboxamide] showed an Emax at 10 µM [3] of 16.8%, an IC50 [3] greater than 10000 nM and an EC50 [1] of 3.98 nM.
For `CC(C)N(C)[C@@H]1CC[C@H](N2CC[C@H](Nc3ncnc4ccc(C(F)(F)F)cc34)C2=O)[C@H](NC(=O)[C@H]2CC[C@H](c3ccc(C(=O)NCCOCCOCCNC(=O)[C@H]4CC(=O)N(C)[C@@H]4c4cccnc4)cc3)CC2)C1` [Example 140], the Emax at 10 µM [3] was 18.2%, the IC50 [3] was greater than 10000 nM and the EC50 [1] was 3.16 nM.
`CC(C)N(C)[C@@H]1CC[C@H](N2CC[C@H](Nc3ncnc4ccc(C(F)(F)F)cc34)C2=O)[C@H](NC(=O)C2CCN(c3ccc(C(=O)NCCOCCOCCNC(=O)[C@H]4CC(=O)N(C)[C@@H]4c4cccnc4)cc3)CC2)C1` [Example 142] gave an Emax at 10 µM [3] of 13.1%, an IC50 [3] greater than 10000 nM and an EC50 [1] of 0.501 nM.
`CC(C)N(C)[C@@H]1CC[C@H](N2CC[C@H](Nc3ncnc4ccc(C(F)(F)F)cc34)C2=O)[C@H](NC(=O)CCOCCOCCO[C@H]2CC[C@H](OCCNC(=O)[C@H]3CC(=O)N(C)[C@@H]3c3cccnc3)CC2)C1` [Example 192, (2S,3S)-N-(2-(((1R,4S)-4-(2-(2-(3-(((1R,2S,5R)-5-(Isopropyl(methyl)amino)-2-((S)-2-oxo-3-((6-(trifluoromethyl)quinazolin-4-yl)amino)pyrrolidin-1-yl)cyclohexyl)amino)-3-oxopropoxy)ethoxy)ethoxy)cyclohexyl)oxy)ethyl)-1-methyl-5-oxo-2-(pyridin-3-yl)pyrrolidine-3-carboxamide] gave an Emax at 100 µM [3] of 53% and an IC50 [3] of 74300 nM.
`CC(C)N(C)[C@@H]1CC[C@H](N2CC[C@H](Nc3ncnc4ccc(C(F)(F)F)cc34)C2=O)[C@H](NC(=O)CCOCCN2CCC3(CCC(C(=O)NCCNC(=O)[C@H]4CC(=O)N(C)[C@@H]4c4cccnc4)CC3)CC2)C1` [compound 184] was tested, and the Emax at 10 µM [3] was 69.2%, the IC50 [3] was 6390 nM and the EC50 [1] was 0.398 nM.
